Source: ChEMBL document CHEMBL3627674, “Discovery of wrightiadione as a novel template for the TrkA kinase inhibitors” (Bioorg Med Chem Lett, 2015)

Key:
[1] = biological target: Mast/stem cell growth factor receptor Kit (Homo sapiens) (UniProt P10721); test: Inhibition of KIT (unknown origin) assessed as remaining activity at 10 uM by high-throughput assay relative to control
[2] = test system: Tyrosine-protein kinase ABL1 (Homo sapiens), P00519 [E255K]; test: Inhibition of ABL1 E255K mutant phosphorylation (unknown origin) assessed as remaining activity at 10 uM by high-throughput assay relative to control
[3] = biological target: Serine/threonine-protein kinase RIO2 (Homo sapiens) (UniProt Q9BVS4); test: Inhibition of RIOK2 (unknown origin) assessed as remaining activity at 10 uM by high-throughput assay relative to control
[4] = biological target: ALK tyrosine kinase receptor (Homo sapiens) (UniProt Q9UM73); test: Inhibition of ALK (unknown origin) assessed as remaining activity at 10 uM by high-throughput assay relative to control
[5] = biological target: Platelet-derived growth factor receptor beta (Homo sapiens) (UniProt P09619); test: Inhibition of PDGFRB (unknown origin) assessed as remaining activity at 10 uM by high-throughput assay relative to control
[6] = biological target: Serine/threonine-protein kinase PLK4 (Homo sapiens) (UniProt O00444); test: Inhibition of PLK4 (unknown origin) assessed as remaining activity at 10 uM by high-throughput assay relative to control
[7] = biological target: Ribosomal protein S6 kinase alpha-3 (Homo sapiens) (UniProt P51812); test: Inhibition of RSK2 Kin.Dom1.1-N-terminal (unknown origin) assessed as remaining activity at 10 uM by high-throughput assay relative to control
[8] = biological target: Mitogen-activated protein kinase 14 (Homo sapiens) (UniProt Q16539); test: Inhibition of p38-alpha (unknown origin) assessed as remaining activity at 10 uM by high-throughput assay relative to control
[9] = biological target: Focal adhesion kinase 1 (Homo sapiens) (UniProt Q05397); test: Inhibition of FAK (unknown origin) assessed as remaining activity at 10 uM by high-throughput assay relative to control
[10] = biological target: Receptor-type tyrosine-protein kinase FLT3 (Homo sapiens) (UniProt P36888); test: Inhibition of FLT3 (unknown origin) assessed as remaining activity at 10 uM by high-throughput assay relative to control
[11] = biological target: Mitogen-activated protein kinase 9 (Homo sapiens) (UniProt P45984); test: Inhibition of JNK2 (unknown origin) assessed as remaining activity at 10 uM by high-throughput assay relative to control
[12] = biological target: SRSF protein kinase 3 (Homo sapiens) (UniProt Q9UPE1); test: Inhibition of SRPK3 (unknown origin) assessed as remaining activity at 10 uM by high-throughput assay relative to control
[13] = biological target: Serine/threonine-protein kinase pim-2 (Homo sapiens) (UniProt Q9P1W9); test: Inhibition of PIM2 (unknown origin) assessed as remaining activity at 10 uM by high-throughput assay relative to control
[14] = biological target: Tyrosine-protein kinase ZAP-70 (Homo sapiens) (UniProt P43403); test: Inhibition of ZAP70 (unknown origin) assessed as remaining activity at 10 uM by high-throughput assay relative to control
[15] = biological target: Serine/threonine-protein kinase pim-3 (Homo sapiens) (UniProt Q86V86); test: Inhibition of PIM3 (unknown origin) assessed as remaining activity at 10 uM by high-throughput assay relative to control
[16] = biological target: High affinity nerve growth factor receptor (Homo sapiens, UniProt P04629); test: Inhibition of TrkA (unknown origin) by radiometric analysis in presence of [gamma-33P]-ATP
[17] = biological target: Mitogen-activated protein kinase 11 (Homo sapiens) (UniProt Q15759); test: Inhibition of p38-beta (unknown origin) assessed as remaining activity at 10 uM by high-throughput assay relative to control
[18] = biological target: 3-phosphoinositide-dependent protein kinase 1 (Homo sapiens) (UniProt O15530); test: Inhibition of PDPK1 (unknown origin) assessed as remaining activity at 10 uM by high-throughput assay relative to control
[19] = biological target: Tyrosine-protein kinase ABL1 (Homo sapiens) (UniProt P00519); test: Inhibition of ABL1 phosphorylation (unknown origin) assessed as remaining activity at 10 uM by high-throughput assay relative to control
[20] = biological target: RAF proto-oncogene serine/threonine-protein kinase (Homo sapiens) (UniProt P04049); test: Inhibition of RAF1 (unknown origin) assessed as remaining activity at 10 uM by high-throughput assay relative to control
[21] = biological target: MAP kinase-interacting serine/threonine-protein kinase 1 (Homo sapiens) (UniProt Q9BUB5); test: Inhibition of MKNK1 (unknown origin) assessed as remaining activity at 10 uM by high-throughput assay relative to control
[22] = biological target: Mitogen-activated protein kinase kinase kinase 9 (Homo sapiens) (UniProt P80192); test: Inhibition of MLK1 (unknown origin) assessed as remaining activity at 10 uM by high-throughput assay relative to control
[23] = biological target: Epidermal growth factor receptor (Homo sapiens) (UniProt P00533); test: Inhibition of EGFR (unknown origin) assessed as remaining activity at 10 uM by high-throughput assay relative to control
[24] = biological target: Dual specificity tyrosine-phosphorylation-regulated kinase 1B (Homo sapiens) (UniProt Q9Y463); test: Inhibition of DYRK1B (unknown origin) assessed as remaining activity at 10 uM by high-throughput assay relative to control
[25] = biological target: Cyclin-dependent kinase 11B (Homo sapiens) (UniProt P21127); test: Inhibition of CDK11 (unknown origin) assessed as remaining activity at 10 uM by high-throughput assay relative to control
[26] = biological target: MAP kinase-interacting serine/threonine-protein kinase 2 (Homo sapiens) (UniProt Q9HBH9); test: Inhibition of MKNK2 (unknown origin) assessed as remaining activity at 10 uM by high-throughput assay relative to control
[27] = biological target: Serine/threonine-protein kinase PAK 1 (Homo sapiens) (UniProt Q13153); test: Inhibition of PAK1 (unknown origin) assessed as remaining activity at 10 uM by high-throughput assay relative to control
[28] = biological target: Mitogen-activated protein kinase 8 (Homo sapiens) (UniProt P45983); test: Inhibition of JNK1 (unknown origin) assessed as remaining activity at 10 uM by high-throughput assay relative to control
[29] = biological target: Inhibitor of nuclear factor kappa-B kinase subunit beta (Homo sapiens) (UniProt O14920); test: Inhibition of IKK-beta (unknown origin) assessed as remaining activity at 10 uM by high-throughput assay relative to control
[30] = biological target: Serine/threonine-protein kinase PLK3 (Homo sapiens, UniProt Q9H4B4); test: Inhibition of PLK3 (unknown origin) assessed as remaining activity at 10 uM by high-throughput assay relative to control
[31] = test system: Serine/threonine-protein kinase B-raf (Homo sapiens), P15056 [V600E]; test: Inhibition of BRAF V600E mutant (unknown origin) assessed as remaining activity at 10 uM by high-throughput assay relative to control
[32] = biological target: Dual specificity mitogen-activated protein kinase kinase 2 (Homo sapiens) (UniProt P36507); test: Inhibition of MEK2 (unknown origin) assessed as remaining activity at 10 uM by high-throughput assay relative to control

Chain of Inhibitor of nuclear factor kappa-B kinase subunit beta (Homo sapiens) (O14920 whole entry): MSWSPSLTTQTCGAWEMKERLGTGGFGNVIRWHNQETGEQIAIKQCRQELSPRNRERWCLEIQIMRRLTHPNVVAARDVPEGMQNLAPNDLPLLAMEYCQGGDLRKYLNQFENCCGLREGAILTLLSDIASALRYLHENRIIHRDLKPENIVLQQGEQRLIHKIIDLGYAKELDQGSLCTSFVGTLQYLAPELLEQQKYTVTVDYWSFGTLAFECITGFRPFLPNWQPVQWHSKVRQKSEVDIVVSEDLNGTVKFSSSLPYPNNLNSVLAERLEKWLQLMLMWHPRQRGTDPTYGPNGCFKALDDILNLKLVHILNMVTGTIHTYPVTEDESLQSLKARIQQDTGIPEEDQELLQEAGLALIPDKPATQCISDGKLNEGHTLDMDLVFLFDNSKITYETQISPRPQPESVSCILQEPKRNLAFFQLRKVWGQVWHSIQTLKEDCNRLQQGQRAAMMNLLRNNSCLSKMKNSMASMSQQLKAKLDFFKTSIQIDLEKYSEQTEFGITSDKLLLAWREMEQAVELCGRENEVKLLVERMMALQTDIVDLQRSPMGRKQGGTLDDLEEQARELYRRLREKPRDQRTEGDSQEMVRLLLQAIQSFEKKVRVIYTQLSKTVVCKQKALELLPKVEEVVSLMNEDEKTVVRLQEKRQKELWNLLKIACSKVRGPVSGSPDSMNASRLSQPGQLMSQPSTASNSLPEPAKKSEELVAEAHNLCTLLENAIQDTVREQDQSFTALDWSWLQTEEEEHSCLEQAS
Chain of Mitogen-activated protein kinase 14 (Homo sapiens) (Q16539 whole entry): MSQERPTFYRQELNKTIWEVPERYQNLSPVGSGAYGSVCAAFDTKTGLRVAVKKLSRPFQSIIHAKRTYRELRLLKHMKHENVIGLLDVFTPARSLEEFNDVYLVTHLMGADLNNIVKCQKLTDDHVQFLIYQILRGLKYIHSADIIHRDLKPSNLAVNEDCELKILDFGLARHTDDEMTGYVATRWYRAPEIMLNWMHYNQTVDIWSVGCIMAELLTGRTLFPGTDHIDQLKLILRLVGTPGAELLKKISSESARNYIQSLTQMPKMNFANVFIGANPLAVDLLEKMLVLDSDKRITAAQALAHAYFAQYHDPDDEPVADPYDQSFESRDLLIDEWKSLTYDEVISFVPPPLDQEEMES
Chain of Mast/stem cell growth factor receptor Kit (Homo sapiens) (P10721 whole entry): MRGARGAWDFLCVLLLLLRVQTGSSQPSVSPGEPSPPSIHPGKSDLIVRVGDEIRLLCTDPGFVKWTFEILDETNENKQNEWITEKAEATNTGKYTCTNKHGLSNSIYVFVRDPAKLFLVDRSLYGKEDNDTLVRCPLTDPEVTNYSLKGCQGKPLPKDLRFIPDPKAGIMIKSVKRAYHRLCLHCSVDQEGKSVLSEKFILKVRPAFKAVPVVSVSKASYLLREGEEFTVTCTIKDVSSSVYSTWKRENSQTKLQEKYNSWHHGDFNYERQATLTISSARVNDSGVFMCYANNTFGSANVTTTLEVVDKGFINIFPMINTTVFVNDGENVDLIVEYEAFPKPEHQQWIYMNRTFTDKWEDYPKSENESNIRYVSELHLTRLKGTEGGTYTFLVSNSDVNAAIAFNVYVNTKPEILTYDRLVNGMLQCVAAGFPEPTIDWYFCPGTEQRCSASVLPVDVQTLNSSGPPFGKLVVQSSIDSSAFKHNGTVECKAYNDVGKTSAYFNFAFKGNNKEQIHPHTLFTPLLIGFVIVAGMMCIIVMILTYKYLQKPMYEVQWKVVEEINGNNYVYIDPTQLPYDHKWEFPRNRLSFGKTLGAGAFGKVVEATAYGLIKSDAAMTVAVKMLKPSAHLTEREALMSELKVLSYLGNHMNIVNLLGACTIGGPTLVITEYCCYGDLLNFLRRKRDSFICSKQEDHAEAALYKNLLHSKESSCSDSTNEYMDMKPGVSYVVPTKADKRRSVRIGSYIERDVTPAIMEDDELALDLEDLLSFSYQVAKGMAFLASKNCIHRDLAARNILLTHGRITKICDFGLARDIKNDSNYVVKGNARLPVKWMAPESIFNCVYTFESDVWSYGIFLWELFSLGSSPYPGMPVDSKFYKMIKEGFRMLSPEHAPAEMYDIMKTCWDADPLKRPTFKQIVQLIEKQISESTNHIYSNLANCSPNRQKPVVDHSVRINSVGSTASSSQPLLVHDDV
Chain of Dual specificity tyrosine-phosphorylation-regulated kinase 1B (Homo sapiens) (Q9Y463 whole entry, looked up): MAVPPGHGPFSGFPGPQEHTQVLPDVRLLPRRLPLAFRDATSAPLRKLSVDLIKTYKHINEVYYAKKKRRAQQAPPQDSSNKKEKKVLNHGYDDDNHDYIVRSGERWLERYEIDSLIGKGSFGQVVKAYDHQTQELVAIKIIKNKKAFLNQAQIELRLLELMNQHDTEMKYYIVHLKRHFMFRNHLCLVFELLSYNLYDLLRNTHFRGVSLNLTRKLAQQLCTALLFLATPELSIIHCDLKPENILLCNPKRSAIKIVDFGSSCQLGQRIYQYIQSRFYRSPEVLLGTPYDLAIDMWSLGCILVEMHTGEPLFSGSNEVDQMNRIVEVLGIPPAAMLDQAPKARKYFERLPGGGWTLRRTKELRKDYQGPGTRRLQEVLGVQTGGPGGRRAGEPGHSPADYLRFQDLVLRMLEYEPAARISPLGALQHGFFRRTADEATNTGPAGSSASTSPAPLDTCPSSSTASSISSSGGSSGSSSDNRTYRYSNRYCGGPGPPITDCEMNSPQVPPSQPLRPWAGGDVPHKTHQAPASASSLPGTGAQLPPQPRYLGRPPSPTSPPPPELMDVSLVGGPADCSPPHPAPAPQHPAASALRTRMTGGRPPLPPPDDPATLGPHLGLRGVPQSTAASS
Chain of Serine/threonine-protein kinase RIO2 (Homo sapiens) (Q9BVS4 whole entry, looked up): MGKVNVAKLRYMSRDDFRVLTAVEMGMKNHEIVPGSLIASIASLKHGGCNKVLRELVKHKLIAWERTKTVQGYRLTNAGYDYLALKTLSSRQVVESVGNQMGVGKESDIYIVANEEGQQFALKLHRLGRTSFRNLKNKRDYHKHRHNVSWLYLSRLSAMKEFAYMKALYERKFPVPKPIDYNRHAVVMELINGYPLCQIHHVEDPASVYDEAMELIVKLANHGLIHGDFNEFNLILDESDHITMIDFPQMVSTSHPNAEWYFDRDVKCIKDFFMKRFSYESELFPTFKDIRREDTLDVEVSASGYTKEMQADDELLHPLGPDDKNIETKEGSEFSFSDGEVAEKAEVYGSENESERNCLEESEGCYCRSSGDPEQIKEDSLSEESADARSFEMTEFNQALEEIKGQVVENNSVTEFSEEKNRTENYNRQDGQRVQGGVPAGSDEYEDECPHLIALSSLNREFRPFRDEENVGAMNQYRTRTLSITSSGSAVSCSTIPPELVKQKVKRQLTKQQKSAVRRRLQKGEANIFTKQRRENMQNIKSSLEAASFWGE
Chain of ALK tyrosine kinase receptor (Homo sapiens) (Q9UM73 19-1620 limits assumed): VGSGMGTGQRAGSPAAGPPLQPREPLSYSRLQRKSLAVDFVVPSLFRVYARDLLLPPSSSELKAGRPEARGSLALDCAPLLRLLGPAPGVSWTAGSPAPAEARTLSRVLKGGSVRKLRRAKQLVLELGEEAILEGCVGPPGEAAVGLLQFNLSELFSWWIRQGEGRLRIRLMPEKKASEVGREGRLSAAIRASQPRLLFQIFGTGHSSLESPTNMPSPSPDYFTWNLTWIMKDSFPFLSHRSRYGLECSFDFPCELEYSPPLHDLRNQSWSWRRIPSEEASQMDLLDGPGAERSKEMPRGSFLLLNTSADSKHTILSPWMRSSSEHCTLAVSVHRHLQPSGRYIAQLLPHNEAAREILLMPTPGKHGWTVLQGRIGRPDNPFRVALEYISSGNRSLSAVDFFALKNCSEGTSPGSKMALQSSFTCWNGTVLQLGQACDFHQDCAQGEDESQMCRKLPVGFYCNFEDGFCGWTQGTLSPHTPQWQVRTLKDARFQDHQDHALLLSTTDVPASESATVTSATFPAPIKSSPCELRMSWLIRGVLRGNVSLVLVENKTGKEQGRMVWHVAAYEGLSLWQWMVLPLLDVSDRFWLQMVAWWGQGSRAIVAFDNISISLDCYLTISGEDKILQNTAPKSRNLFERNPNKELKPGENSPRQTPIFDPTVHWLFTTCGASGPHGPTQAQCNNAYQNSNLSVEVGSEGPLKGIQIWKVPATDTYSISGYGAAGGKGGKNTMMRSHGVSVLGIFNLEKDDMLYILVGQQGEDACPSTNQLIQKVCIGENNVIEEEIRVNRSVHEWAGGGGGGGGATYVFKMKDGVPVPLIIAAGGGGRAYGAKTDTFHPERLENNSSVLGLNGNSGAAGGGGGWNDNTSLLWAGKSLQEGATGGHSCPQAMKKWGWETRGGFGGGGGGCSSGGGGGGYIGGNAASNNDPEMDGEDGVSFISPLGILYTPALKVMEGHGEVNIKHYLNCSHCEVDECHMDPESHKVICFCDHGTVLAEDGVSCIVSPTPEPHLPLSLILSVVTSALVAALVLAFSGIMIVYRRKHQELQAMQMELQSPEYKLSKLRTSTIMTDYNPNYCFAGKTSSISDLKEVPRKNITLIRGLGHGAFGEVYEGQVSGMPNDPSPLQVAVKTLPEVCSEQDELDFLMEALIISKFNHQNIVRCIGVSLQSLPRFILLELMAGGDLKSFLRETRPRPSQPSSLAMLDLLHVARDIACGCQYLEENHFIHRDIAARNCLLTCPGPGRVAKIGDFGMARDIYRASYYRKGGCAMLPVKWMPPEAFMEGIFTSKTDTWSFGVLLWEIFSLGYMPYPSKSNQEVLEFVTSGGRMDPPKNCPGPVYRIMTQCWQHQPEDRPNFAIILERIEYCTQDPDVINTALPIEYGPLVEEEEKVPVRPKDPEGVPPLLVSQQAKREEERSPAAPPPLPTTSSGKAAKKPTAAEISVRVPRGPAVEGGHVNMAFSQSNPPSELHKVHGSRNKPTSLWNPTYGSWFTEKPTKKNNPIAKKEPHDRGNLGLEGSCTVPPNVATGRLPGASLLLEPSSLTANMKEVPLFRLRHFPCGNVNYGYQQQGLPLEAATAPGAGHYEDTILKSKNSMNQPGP

Activity [1]: 38%
Activity [2]: 93%
Activity [3]: 70%
Activity [4]: 48%
Activity [5]: 45%
Activity [6]: 80%
Activity [7]: 77%
Activity [8]: 95%
Activity [9]: 90%
Activity [10]: 51%
Activity [11]: 49%
Activity [12]: 73%
Activity [13]: 82%
Activity [14]: 77%
Activity [15]: 94%
IC50 [16]: 55.8 µM
Activity [17]: 79%
Activity [18]: 99%
Activity [19]: 98%
Activity [20]: 92%
Activity [21]: 99%
Activity [22]: 74%
Activity [23]: 93%
Activity [24]: 52%
Activity [25]: 66%
Activity [26]: 59%
Activity [27]: 93%
Activity [28]: 34%
Activity [29]: 73%
Activity [30]: 8.3%
Activity [31]: 72%
Activity [32]: 71%
Structure (SMILES): O=C1c2ccccc2-c2c1oc1ccccc1c2=O
